Like-named read-outs stand apart in the source and are kept apart here.
What was measured:
MOR [1] = target: T1, MOR (Homo sapiens, UniProt P35372); assay: β-arrestin recruitment BRET in transfected HEK-293 cells; assay type: cell-based
Sigma-1 = Sigma-1 (Rattus norvegicus, UniProt Q9R0C9); assay: Competitive radioligand binding, [3H]
locomotor activity = assay: Locomotor activity in mice; assay type: in vivo; conditions: for acute locomotor activity: male mice, 5, 10 and 20 mg/kg IP every 30 min
[2] = test system: conditioned place preference; assay: Conditioned place preference in mice; assay type: in vivo; conditions: male mice, 10 mg/kg IP, 6 days pairing
KOR [3] = target: T2, KOR (Homo sapiens, UniProt P41145); assay: cAMP accumulation BRET; assay type: cell-based
T2 sequence (P41145 whole entry): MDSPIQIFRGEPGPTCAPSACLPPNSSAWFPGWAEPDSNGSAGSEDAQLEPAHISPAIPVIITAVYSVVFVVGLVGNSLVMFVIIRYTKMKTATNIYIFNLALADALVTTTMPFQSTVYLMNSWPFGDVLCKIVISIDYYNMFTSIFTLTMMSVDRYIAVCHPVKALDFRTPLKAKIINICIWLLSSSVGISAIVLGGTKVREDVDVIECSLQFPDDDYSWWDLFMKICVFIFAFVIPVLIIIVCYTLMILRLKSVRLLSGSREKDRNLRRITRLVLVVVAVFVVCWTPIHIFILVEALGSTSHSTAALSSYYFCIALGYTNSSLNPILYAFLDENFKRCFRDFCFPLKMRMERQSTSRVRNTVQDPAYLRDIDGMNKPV

KOR [4] = target: T2, KOR; assay: Binding and enzyme target profile screen
[5] = test system: morphine CPP and opioid withdrawal; conditions: mice; cited from earlier work
[6] = target: PCP binding site of the NMDAR (Rattus norvegicus, UniProt P35439); assay: Binding and enzyme target profile screen; conditions: 10 μM
MOR [7] = target: T1, MOR; assay: cAMP accumulation BRET; assay type: cell-based
KOR [8] = target: T2, KOR; assay: β-arrestin recruitment BRET in transfected HEK-293 cells; assay type: cell-based
mu-opioid receptor (MOR) = mu-opioid receptor (MOR) (Homo sapiens, UniProt P35372); assay: Binding and enzyme target profile screen; conditions: 10 μM
Chain of mu-opioid receptor (MOR) (P35372 whole entry): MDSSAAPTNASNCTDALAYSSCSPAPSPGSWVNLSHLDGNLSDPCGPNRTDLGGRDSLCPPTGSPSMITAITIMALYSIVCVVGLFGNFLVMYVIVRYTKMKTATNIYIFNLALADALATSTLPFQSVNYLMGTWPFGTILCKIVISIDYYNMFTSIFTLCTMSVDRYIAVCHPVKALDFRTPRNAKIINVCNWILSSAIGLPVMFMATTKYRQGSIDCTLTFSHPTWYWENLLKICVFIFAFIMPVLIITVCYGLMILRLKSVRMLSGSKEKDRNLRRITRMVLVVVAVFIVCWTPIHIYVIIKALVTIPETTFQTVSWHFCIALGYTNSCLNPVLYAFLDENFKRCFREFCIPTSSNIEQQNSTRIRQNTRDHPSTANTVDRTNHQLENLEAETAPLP

[9] = test system: conditioned place preference; conditions: 40 mg/kg IP, cited from earlier work
locomotor sensitization = assay: Locomotor; assay type: in vivo; conditions: male mice; for locomotor (psychomotor) sensitization over days: 20 mg/kg IP for 3 days
dopamine tone [10] = assay: [18F]-Fallypride PET; assay type: in vivo, rat; conditions: 10 mg/kg IV infusion for 40 min
drug self-administration = assay: Intravenous self-administration in rats; assay type: in vivo; conditions: for dose response curve of self-administration: 0.125, 0.25, 0.5, 1.0 mg/kg/infusion, FR1; for extinction of drug self-administration: after retraining on FR1; for self-administration during training: male and female rats, 0.5 mg/kg/infusion, FR1 20-s timeout, 16 sessions
[11] = test system: NMDARs over opioid receptors; conditions: canonical high affinity NMDAR antagonist; no reference given; cited from earlier work
dopamine tone [12] = conditions: awake monkeys; cited from earlier work
[13] = test system: methamphetamine-induced locomotion; conditions: 10 mg/kg/day, twice weekly for 8 weeks; cited from earlier work

T1 sequence (P35372 whole entry): as above
Chain of Sigma-1 (Q9R0C9 whole entry): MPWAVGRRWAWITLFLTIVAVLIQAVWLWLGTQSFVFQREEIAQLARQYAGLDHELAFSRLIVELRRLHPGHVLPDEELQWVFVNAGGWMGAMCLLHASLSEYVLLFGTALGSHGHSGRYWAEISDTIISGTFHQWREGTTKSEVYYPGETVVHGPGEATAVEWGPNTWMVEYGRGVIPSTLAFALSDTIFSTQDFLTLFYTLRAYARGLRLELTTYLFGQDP

SMILES	activation of the β-arrestin pathway, MOR (MOR [1])	acute locomotor activity (locomotor activity)	conditioned place preference for drug-paired chamber [2]	mode of action at KOR, cAMP assay (KOR [3])	hit (>50% inhibition) at PCP binding site of the NMDAR [6]	mode of action at MOR, cAMP assay (MOR [7])	activation of the β-arrestin pathway, KOR (KOR [8])	hit (>50% inhibition) at MOR (mu-opioid receptor (MOR))	locomotor activity after 20 mg/kg IP injection (locomotor sensitization)	locomotor (psychomotor) sensitization over days (locomotor sensitization)	global extracellular dopamine levels in the dorsal striatum ([18F]fallypride) (dopamine tone [10])	dose response curve of self-administration (drug self-administration)	extinction of drug self-administration (drug self-administration)	self-administration during training (drug self-administration)	also measured
CN[C@@]1(c2ccccc2Cl)CCCCC1=O [(R)-ketamine]	Neither (S)- nor (R)-ketamine activated	increasing it only at the 20 mg/kg dose	not for the (R)-ketamine-paired chamber	weaker partial agonist	positive hit	weaker partial agonist	Neither (S)- nor (R)-ketamine activated	not for (R)-ketamine	increased locomotor activity	but not (R)-ketamine induced psychomotor sensitization	Neither (S)- nor (R)-ketamine significantly changed	did not show this pattern of responding	rapid extinction of drug seeking	weaker and less reliable	Ki (Sigma-1; read-out: Ki sigma-1, rat whole brain, [3H](+)pentazocine): 27 ± 3 µM; Emax KOR, cAMP assay (KOR [3]; % morphine maximum response): < 50%; EC50 (KOR [3]; read-out: EC50 KOR, cAMP assay, HEK-293 transfected with KOR): > 100 µM; inhibition of KOR binding (KOR [4]; 10 μM): ~ 13%; morphine CPP and naloxone-precipitated opioid withdrawal [5]: decreases morphine CPP and naloxone-precipitated opioid withdrawal; Emax MOR, cAMP assay (MOR [7]; % morphine maximum response): 39 ± 3%; EC50 (MOR [7]; read-out: EC50 MOR, cAMP assay, HEK-293 transfected with MOR): 34 ± 14 µM; CPP in mice ([9]; ref 68): did not produce CPP; CPP in mice ([9]; ref 71): produced CPP in mice; cross-sensitization to (S)-ketamine (locomotor sensitization; repeated 20 mg/kg IP): did not cross-sensitize to (S)-ketamine
C[C@]12N[C@H](Cc3ccccc31)c1ccccc12 [MK-801]	–	–	–	–	–	–	–	–	–	–	–	–	–	–	selectivity for NMDAR over opioid receptors [11]: ~ 1000 fold
O=C1CC[C@@]2(O)[C@H]3Cc4ccc(O)c5c4[C@@]2(CCN3CC2CC2)[C@H]1O5 [naltrexone]	–	–	–	–	–	–	–	–	–	–	–	–	–	–	effect on (S)-ketamine-induced locomotor activity (locomotor activity; naltrexone 10 mg/kg IP pretreatment, male mice): partially blocked
CN[C@]1(c2ccccc2Cl)CCCCC1=O [(S)-ketamine]	Neither (S)- nor (R)-ketamine activated	more potent than (R)-ketamine in increasing locomotor activity	significant preference for the (S)-ketamine-paired chamber	full agonist	positive hit	partial agonist	Neither (S)- nor (R)-ketamine activated	identified as a hit for (S)-ketamine	increased locomotor activity	showed locomotor sensitization over days	Neither (S)- nor (R)-ketamine significantly changed	characteristic inverted U-shaped dose response curve	rapid extinction of drug seeking	self-administered (S)-ketamine with a significant escalation of drug intake	[11C]raclopride binding (dopamine tone) (dopamine tone [12]): decreases in [^11C]raclopride binding; Ki (Sigma-1): 131 ± 15 µM; EC50 (KOR [3]): 16 ± 4 µM; Emax (KOR [3]; HEK293, read-out: Emax KOR, cAMP assay): 84 ± 5%; inhibition at 10 µM (KOR [4]; read-out: inhibition of KOR binding): ~35%; EC50 (MOR [7]): 9 ± 2 µM; Emax (MOR [7]; HEK293, read-out: Emax MOR, cAMP assay): 48 ± 3%; methamphetamine-induced locomotion in mice [13]: led to increased methamphetamine-induced locomotion; average self-administered intake (drug self-administration; dose response test): ~ 15 mg/kg/h

— publication PMC8517038 (Molecular psychiatry, 2021)
